Experiments:
Type in all cases: physicochemical
[1] = Chemical stability in CDCl3 after 46 days by GC-MS analysis; details: read-out: Stability
[2] = Chemical stability in heaxane; EtOAc:MeOH:H2O-7 (9:1:9:1) after 41 days by qHNMR experiment; details: hexane:EtOAc:MeOH:H2O (9:1:9:1) solvent mixture; read-out: Stability
[3] = Chemical stability in MeOH after 41 days; details: read-out: Stability
[4] = Chemical stability in DMSO after 41 days; details: read-out: Stability
[5] = Chemical stability in CDCl3 after 46 days by qHNMR experiment; details: read-out: Stability

remaining at 1104 h [1]: 91.6%
remaining at 984 h [2]: 0.8%
remaining at 984 h [3]: 4.4%
remaining at 984 h [4]: 5.2%
remaining at 1104 h [5]: 78.1%
Compound: CCC/C=C1\OC(=O)C2=C1CCC=C2 [LIGUSTILIDE]

Source: ChEMBL document CHEMBL1156667, “Dynamic nature of the ligustilide complex” (J Nat Prod, 2008)
